Results taken from PubChem BioAssay (NCI).
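Five compound concentrations were applied to cells in 96-well plates for 48 hours; endpoints were derived by simple linear interpolation of the resulting dose-response curve. GI50: concentration for 50% inhibition of growth. At the TGI there is no net growth.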

These compounds were tested on CCRF-CEM leukemia (assay: NCI-60 cell line screen, 48 h).

Going from `N#Cc1c(Cl)c2cc([N+](=O)[O-])ccc2n2c1nc1ccccc12` to `Cc1nc2ccccc2n1C(=O)c1c(F)c(F)c(F)c(F)c1F`, the TGI rises from 4.27 µM to greater than 100 µM.

Going from `C=CC1(C)CCC2=C(CCC3C(C)(C(=O)OC)CCCC23C)C1=O` (stereo not given) to `C=C(C)C(=O)OC1CCC2(C)C(CCC3C2CCC2(C)C(c4ccc(=O)oc4)CC4OC432)C1` (stereo not given), the TGI falls from 68 µM to 15.3 µM (4.4-fold).

`O=S1(=O)N(CCNc2nccc(-c3c(-c4cccc(O)c4)nc4sccn34)n2)CCN1Cc1ccccc1` and `O=C1CCCCC2N(C(c3ccccc3)c3ccccc3)CC[C@@]12c1ccccc1` (mixture of isomers) cannot be ordered by TGI: 30.9 µM for the first, greater than 10 µM for the second.

Compared with `COc1cc(/C=C2\CCCC3=C2NC(C)=NC3c2cc(OC)c(OC)c(OC)c2)cc(OC)c1OC` (stereo not given), `Cc1cc(O)c(C(C)(C)C)cc1Sc1cc(C(C)(C)C)c(O)cc1C` is lower in TGI: greater than 100 µM for the first, 14.5 µM for the second.

`CCOC(=O)C(O)(NC(=O)c1ccc(F)cc1)C(F)(F)F` (stereo not given) and `Clc1ccccc1/C=C/c1cscn1` cannot be ordered by TGI: greater than 100 µM for the first, greater than 100 µM for the second.

`O=S1(=O)N(CCNc2nccc(-c3c(-c4cccc(O)c4)nc4sccn34)n2)CCN1Cc1ccccc1` and `Cc1cc(O)c(C(C)(C)C)cc1Sc1cc(C(C)(C)C)c(O)cc1C` are within 1.5-fold of each other in GI50: 2.26 µM for the first, 2.95 µM for the second.

With `COc1cc(/C=C2\CCCC3=C2NC(C)=NC3c2cc(OC)c(OC)c(OC)c2)cc(OC)c1OC` (stereo not given) the GI50 was 0.838 µM.

`O=C1NN(C2=NNC3(C(=O)N2)c2ccccc2-c2ccccc23)C(c2ccccc2)=N/C1=C/c1ccc(O)cc1` gave a GI50 of 46.4 µg/mL.

Work on `O=C1NN(C2=NNC3(C(=O)N2)c2ccccc2-c2ccccc23)C(c2ccccc2)=N/C1=C/c1ccc(O)cc1` yielded a TGI greater than 150 µg/mL.

What follows are compounds tested on COLO 205 colon (assay: NCI-60 cell line screen, 48 h).

Compared with `N#Cc1c(Cl)c2cc([N+](=O)[O-])ccc2n2c1nc1ccccc12`, `Cc1nc2ccccc2n1C(=O)c1c(F)c(F)c(F)c(F)c1F` is 17-fold higher in TGI: 4.67 µM for the first, 77.9 µM for the second.

Compared with `C=CC1(C)CCC2=C(CCC3C(C)(C(=O)OC)CCCC23C)C1=O` (stereo not given), `C=C(C)C(=O)OC1CCC2(C)C(CCC3C2CCC2(C)C(c4ccc(=O)oc4)CC4OC432)C1` (stereo not given) is 1.5-fold lower in TGI: 34.6 µM for the first, 22.8 µM for the second.

Going from `O=S1(=O)N(CCNc2nccc(-c3c(-c4cccc(O)c4)nc4sccn34)n2)CCN1Cc1ccccc1` to `CCOC(=O)C(O)(NC(=O)c1ccc(F)cc1)C(F)(F)F` (stereo not given), the TGI rises from 32.3 µM to greater than 100 µM.

With `Cc1cc(O)c(C(C)(C)C)cc1Sc1cc(C(C)(C)C)c(O)cc1C` the TGI was 7.24 µM.

First: O=S1(=O)N(CCNc2nccc(-c3c(-c4cccc(O)c4)nc4sccn34)n2)CCN1Cc1ccccc1
Second: Cc1cc(O)c(C(C)(C)C)cc1Sc1cc(C(C)(C)C)c(O)cc1C
The GI50 of the first is 4.6-fold lower: 0.621 µM for the first, 2.83 µM for the second.

`O=C1NN(C2=NNC3(C(=O)N2)c2ccccc2-c2ccccc23)C(c2ccccc2)=N/C1=C/c1ccc(O)cc1` gave a GI50 greater than 150 µg/mL.

Compound `O=C1NN(C2=NNC3(C(=O)N2)c2ccccc2-c2ccccc23)C(c2ccccc2)=N/C1=C/c1ccc(O)cc1` has a TGI greater than 150 µg/mL.

These compounds were tested on DU-145 prostate (assay: NCI-60 cell line screen, 48 h).

Compared with `O=C(O)Cc1cc(O)c(CC(=O)O)cc1O`, `Cc1cc(O)c(C(C)(C)C)cc1Sc1cc(C(C)(C)C)c(O)cc1C` is lower in TGI: greater than 100 µM for the first, 13.2 µM for the second.

First: N#Cc1c(Cl)c2cc([N+](=O)[O-])ccc2n2c1nc1ccccc12
Second: Cc1nc2ccccc2n1C(=O)c1c(F)c(F)c(F)c(F)c1F
The TGI of the first is 4.2-fold lower: 18.4 µM for the first, 76.5 µM for the second.

Compared with `O=S1(=O)N(CCNc2nccc(-c3c(-c4cccc(O)c4)nc4sccn34)n2)CCN1Cc1ccccc1`, `O=C(N/N=C\c1cccc(O)c1)c1ccncc1` is higher in TGI: 26.1 µM for the first, greater than 100 µM for the second.

`COc1cc(/C=C2\CCCC3=C2NC(C)=NC3c2cc(OC)c(OC)c(OC)c2)cc(OC)c1OC` (stereo not given) and `CCOC(=O)C(O)(NC(=O)c1ccc(F)cc1)C(F)(F)F` (stereo not given) cannot be ordered by TGI: greater than 100 µM for the first, greater than 100 µM for the second.

Going from `O=S1(=O)N(CCNc2nccc(-c3c(-c4cccc(O)c4)nc4sccn34)n2)CCN1Cc1ccccc1` to `Cc1cc(O)c(C(C)(C)C)cc1Sc1cc(C(C)(C)C)c(O)cc1C`, the GI50 falls from 8.1 µM to 3.69 µM (2.2-fold).

`COc1cc(/C=C2\CCCC3=C2NC(C)=NC3c2cc(OC)c(OC)c(OC)c2)cc(OC)c1OC` (stereo not given) showed a GI50 of 1.53 µM.

`O=C1NN(C2=NNC3(C(=O)N2)c2ccccc2-c2ccccc23)C(c2ccccc2)=N/C1=C/c1ccc(O)cc1` showed a GI50 of 90.8 µg/mL.

`O=C1NN(C2=NNC3(C(=O)N2)c2ccccc2-c2ccccc23)C(c2ccccc2)=N/C1=C/c1ccc(O)cc1` gave a TGI greater than 150 µg/mL.

The compounds below were run on HCC-2998 colon (assay: NCI-60 cell line screen, 48 h).

Compared with `O=C(O)Cc1cc(O)c(CC(=O)O)cc1O`, `Cc1cc(O)c(C(C)(C)C)cc1Sc1cc(C(C)(C)C)c(O)cc1C` is lower in TGI: greater than 100 µM for the first, 5.56 µM for the second.

First: N#Cc1c(Cl)c2cc([N+](=O)[O-])ccc2n2c1nc1ccccc12
Second: Cc1nc2ccccc2n1C(=O)c1c(F)c(F)c(F)c(F)c1F
The TGI of the first is 1.8-fold lower: 19.4 µM for the first, 34.2 µM for the second.

Compared with `O=S1(=O)N(CCNc2nccc(-c3c(-c4cccc(O)c4)nc4sccn34)n2)CCN1Cc1ccccc1`, `O=C(N/N=C\c1cccc(O)c1)c1ccncc1` is higher in TGI: 39.8 µM for the first, greater than 100 µM for the second.

Going from `C=C(C)C(=O)OC1CCC2(C)C(CCC3C2CCC2(C)C(c4ccc(=O)oc4)CC4OC432)C1` (stereo not given) to `CCOC(=O)C(O)(NC(=O)c1ccc(F)cc1)C(F)(F)F` (stereo not given), the TGI rises from 17.8 µM to greater than 100 µM.

For `Clc1ccccc1/C=C/c1cscn1`, the TGI was greater than 100 µM.

Going from `O=S1(=O)N(CCNc2nccc(-c3c(-c4cccc(O)c4)nc4sccn34)n2)CCN1Cc1ccccc1` to `Cc1cc(O)c(C(C)(C)C)cc1Sc1cc(C(C)(C)C)c(O)cc1C`, the GI50 falls from 14.2 µM to 2.45 µM (5.8-fold).

Each compound was assayed on HL-60(TB) leukemia (assay: NCI-60 cell line screen, 48 h).

First: O=C(O)Cc1cc(O)c(CC(=O)O)cc1O
Second: Cc1cc(O)c(C(C)(C)C)cc1Sc1cc(C(C)(C)C)c(O)cc1C
The TGI of the first is higher: greater than 100 µM for the first, 6.35 µM for the second.

Going from `N#Cc1c(Cl)c2cc([N+](=O)[O-])ccc2n2c1nc1ccccc12` to `Cc1nc2ccccc2n1C(=O)c1c(F)c(F)c(F)c(F)c1F`, the TGI rises from 0.58 µM to greater than 100 µM.

Compared with `C=CC1(C)CCC2=C(CCC3C(C)(C(=O)OC)CCCC23C)C1=O` (stereo not given), `C=C(C)C(=O)OC1CCC2(C)C(CCC3C2CCC2(C)C(c4ccc(=O)oc4)CC4OC432)C1` (stereo not given) is 5.7-fold lower in TGI: 55.2 µM for the first, 9.64 µM for the second.

Compared with `O=S1(=O)N(CCNc2nccc(-c3c(-c4cccc(O)c4)nc4sccn34)n2)CCN1Cc1ccccc1`, `O=C1CCCCC2N(C(c3ccccc3)c3ccccc3)CC[C@@]12c1ccccc1` (mixture of isomers) is 2.1-fold lower in TGI: 20.1 µM for the first, 9.4 µM for the second.

`CCOC(=O)C(O)(NC(=O)c1ccc(F)cc1)C(F)(F)F` (stereo not given) and `Clc1ccccc1/C=C/c1cscn1` cannot be ordered by TGI: greater than 100 µM for the first, greater than 100 µM for the second.

Compared with `O=S1(=O)N(CCNc2nccc(-c3c(-c4cccc(O)c4)nc4sccn34)n2)CCN1Cc1ccccc1`, `Cc1cc(O)c(C(C)(C)C)cc1Sc1cc(C(C)(C)C)c(O)cc1C` is 3.2-fold lower in GI50: 8.4 µM for the first, 2.6 µM for the second.

Compound `O=C1NN(C2=NNC3(C(=O)N2)c2ccccc2-c2ccccc23)C(c2ccccc2)=N/C1=C/c1ccc(O)cc1` has a GI50 of 51.7 µg/mL.

`O=C1NN(C2=NNC3(C(=O)N2)c2ccccc2-c2ccccc23)C(c2ccccc2)=N/C1=C/c1ccc(O)cc1` gave a TGI greater than 150 µg/mL.

What follows are compounds tested on HS 578T breast (assay: NCI-60 cell line screen, 48 h).

With `O=C(O)Cc1cc(O)c(CC(=O)O)cc1O` the TGI was greater than 100 µM.
